Experimental data published in US20160002204A1 (Board of Regents, The University of Texas System, priority 2014, published 2016).
pEC50, pIC50: −log10 of the molar value.

Assays:
A549 cells = test: A549 proliferation (viability) assay, Cell Titer Fluor, 72 hours; type: cell-based; details: Homo sapiens
In short: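 A549 cells seeded at 1000 cells/well, left 24 h, then exposed to compound for 72 h at 37 °C, 5% CO2, final DMSO 0.5% (v/v). Viability read by Cell Titer Fluor fluorescence; EC50 from four-parameter logistic fit.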

[1] = target: T1, GLS1 (purified recombinant human GAC) (Homo sapiens, UniProt O94925); test: GLS1 enzymatic activity assay (dual-coupled, Amplex UltraRed/resorufin); type: biochemical
T1 sequence (O94925 55-598 isoform O94925-3 limits assumed): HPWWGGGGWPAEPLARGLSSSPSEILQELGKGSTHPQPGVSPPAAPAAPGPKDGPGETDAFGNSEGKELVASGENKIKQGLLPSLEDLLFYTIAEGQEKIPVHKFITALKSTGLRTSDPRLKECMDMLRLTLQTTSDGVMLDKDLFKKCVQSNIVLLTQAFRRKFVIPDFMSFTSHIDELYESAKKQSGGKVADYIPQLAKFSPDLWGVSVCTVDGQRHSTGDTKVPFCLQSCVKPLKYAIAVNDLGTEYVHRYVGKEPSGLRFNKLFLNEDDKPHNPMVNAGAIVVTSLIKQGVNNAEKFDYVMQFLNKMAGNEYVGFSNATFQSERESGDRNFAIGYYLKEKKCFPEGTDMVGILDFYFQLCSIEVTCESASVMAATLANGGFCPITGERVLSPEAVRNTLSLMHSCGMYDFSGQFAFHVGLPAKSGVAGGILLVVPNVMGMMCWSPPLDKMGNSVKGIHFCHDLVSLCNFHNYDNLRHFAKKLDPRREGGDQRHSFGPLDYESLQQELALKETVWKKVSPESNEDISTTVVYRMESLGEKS
In short: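 In this coupled fluorometric format, phosphate-activated GAC (2 nM, 50 mM phosphate) is pre-exposed to compound for 10 min before 1 mM glutamine addition. Product is tracked as resorufin (530/590 nm) over time or at 20 min, and potency is derived by logistic fitting.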

## Cc1ccc(CNC(=O)c2nnc(CCCCn3ccc(NC(=O)CN4CCCCC4)c(F)c3=O)s2)cn1 [Example 462, 5-(4-{3-fluoro-2-oxo-4-[2-(piperidin-1-yl)acetamido]-1,2-dihydropyridin-1-yl}butyl)-N-[(6-methylpyridin-3-yl)methyl]-1,3,4-thiadiazole-2-carboxamide]
A549 cells
  pEC50: 6.30 to 7.00
[1]
  pIC50: 6.30 to 7.00

## Cc1ccc(CNC(=O)c2nnc(CCCCn3ccc(NC(=O)C(=O)N4CCCCC4)c(F)c3=O)s2)cn1 [Example 463, 5-(4-{3-fluoro-2-oxo-4-[2-oxo-2-(piperidin-1-yl)acetamido]-1,2-dihydropyridin-1-yl}butyl)-N-[(6-methylpyridin-3-yl)methyl]-1,3,4-thiadiazole-2-carboxamide]
A549 cells
  pEC50: 6.30 to 7.00
[1]
  pIC50: 6.30 to 7.00

## Cc1ccc(CNC(=O)c2nnc(CCCCn3ccc(NC(=O)CC4CCC4)c(F)c3=O)s2)cn1 [Example 464, 5-(4-(4-(2-cyclobutylacetamido)-3-fluoro-2-oxopyridin-1(2H)-yl)butyl)-N-((6-methylpyridin-3-yl)methyl)-1,3,4-thiadiazole-2-carboxamide]
A549 cells
  pEC50: > 7.00
[1]
  pIC50: > 7.00

## O=C(CC1CCC1)Nc1ccn(CCCCc2nnc(C(=O)NCc3cc(C(F)(F)F)ccn3)s2)c(=O)c1F [Example 465, 5-{4-[4-(2-cyclobutylacetamido)-3-fluoro-2-oxo-1,2-dihydropyridin-1-yl]butyl}-N-{[4-(trifluoromethyl)pyridin-2-yl]methyl}-1,3,4-thiadiazole-2-carboxamide]
A549 cells
  pEC50: > 7.00
[1]
  pIC50: > 7.00

## O=C(Nc1ccn(CCCCc2nnc(C(=O)NCc3cc(C(F)(F)F)ccn3)s2)c(=O)c1F)C(=O)N1CCCCC1 [Example 466, 5-(4-{3-fluoro-2-oxo-4-[2-oxo-2-(piperidin-1-yl)acetamido]-1,2-dihydropyridin-1-yl)butyl)-N-{[4-(trifluoromethyl)pyridin-2-yl]methyl}-1,3,4-thiadiazole-2-carboxamide]
A549 cells
  pEC50: 6.30 to 7.00
[1]
  pIC50: > 7.00

## O=C(CN1CCCCC1)Nc1ccn(CCCCc2nnc(C(=O)NCc3cc(C(F)(F)F)ccn3)s2)c(=O)c1F [Example 467, 5-(4-{3-fluoro-2-oxo-4-[2-(piperidin-1-yl)acetamido]-1,2-dihydropyridin-1-yl}butyl)-N-{[4-(trifluoromethyl)pyridin-2-yl]methyl}-1,3,4-thiadiazole-2-carboxamide]
A549 cells
  pEC50: 6.30 to 7.00
[1]
  pIC50: > 7.00

## Cc1ccc(CNC(=O)c2nnc(CCCCn3ccc(NC(=O)OC4CCC4)c(F)c3=O)s2)cn1 [Example 468, Cyclobutyl(3-fluoro-1-(4-(5-(((6-methylpyridin-3-yl)methyl)carbamoyl)-1,3,4-thiadiazol-2-yl)butyl)-2-oxo-1,2-dihydropyridin-4-yl)carbamate]
A549 cells
  pEC50: 6.30 to 7.00
[1]
  pIC50: 6.30 to 7.00

## O=C(Nc1ccn(CCCCc2nnc(C(=O)NCc3cc(C(F)(F)F)ccn3)s2)c(=O)c1F)OC1CCC1 [Example 469, cyclobutyl N-(3-fluoro-2-oxo-1-{4-[5-({[4-(trifluoromethyl)pyridin-2-yl]methyl}carbamoyl)-1,3,4-thiadiazol-2-yl]butyl}-1,2-dihydropyridin-4-yl)carbamate]
A549 cells
  pEC50: 6.30 to 7.00
[1]
  pIC50: > 7.00

## O=C(Nc1ccn(CCC(F)Cn2cc(C(=O)NCc3cccc(OC(F)(F)F)c3)nn2)c(=O)n1)OCc1ccccc1 (centres unmarked) [Example 470, benzyl N-(1-{3-fluoro-4-[4-({[3-(trifluoromethoxy)phenyl]methyl}carbamoyl)-1H-1,2,3-triazol-1-yl]butyl}-2-oxo-1,2-dihydropyrimidin-4-yl)carbamate]
A549 cells
  pEC50: > 7.00
[1]
  pIC50: > 7.00

## CC(C)COC(=O)Nc1ccn(CCC(F)Cn2cc(C(=O)NCc3cccc(OC(F)(F)F)c3)nn2)c(=O)n1 (centres unmarked) [Example 471, 2-methylpropyl N-(1-{3-fluoro-4-[4-({[3-(trifluoro-methoxy)phenyl]methyl}carbamoyl)-1H-1,2,3-triazol-1-yl]butyl}-2-oxo-1,2-dihydropyrimidin-4-yl)carbamate]
A549 cells
  pEC50: > 7.00
[1]
  pIC50: > 7.00

## O=C(NCc1cccc(OC(F)(F)F)c1)c1cn(CC(F)CCn2ccc(COc3cccc(F)c3)cc2=O)nn1 (centres unmarked) [Example 472, 1-{2-fluoro-4-[4-(3-fluorophenoxymethyl)-2-oxo-1,2-dihydropyridin-1-yl]butyl}-N-{[3-(trifluoromethoxy)phenyl]methyl}-1H-1,2,3-triazole-4-carboxamide]
A549 cells
  pEC50: 6.30 to 7.00
[1]
  pIC50: > 7.00

## O=C(NCc1cccc(OC(F)(F)F)c1)c1cn(CC(F)CCn2ccc(COc3ccccc3F)cc2=O)nn1 (centres unmarked) [Example 473, 1-{2-fluoro-4-[4-(2-fluorophenoxymethyl)-2-oxo-1,2-dihydropyridin-1-yl]butyl}-N-{[3-(trifluoromethoxy)phenyl]methyl}-1H-1,2,3-triazole-4-carboxamide]
A549 cells
  pEC50: 6.30 to 7.00
[1]
  pIC50: > 7.00

## O=C(NCc1cccc(OC(F)(F)F)c1)c1cn(CC(F)CCn2ccc(COc3c(F)cccc3F)cc2=O)nn1 (centres unmarked) [Example 474, 1-{4-[4-(2,6-difluorophenoxymethyl)-2-oxo-1,2-dihydropyridin-1-yl]-2-fluorobutyl}-N-{[3-(trifluoromethoxy)phenyl]methyl}-1H-1,2,3-triazole-4-carboxamide]
A549 cells
  pEC50: 6.30 to 7.00
[1]
  pIC50: > 7.00

## O=C(NCc1cccc(OC(F)(F)F)c1)c1cn(CC(F)CCn2ccc(COc3cccc(Cl)c3)cc2=O)nn1 (centres unmarked) [Example 475, 1-{4-[4-(3-chlorophenoxymethyl)-2-oxo-1,2-dihydropyridin-1-yl]-2-fluorobutyl}-N-{[3-(trifluoromethoxy)phenyl]methyl}-1H-1,2,3-triazole-4-carboxamide]
A549 cells
  pEC50: 5.30 to 6.30
[1]
  pIC50: > 7.00

## O=C(NCc1cccc(OC(F)(F)F)c1)c1cn(CC(F)CCn2ccc(COc3cccc(OC(F)(F)F)c3)cc2=O)nn1 (centres unmarked) [Example 476, 1-(2-fluoro-4-{2-oxo-4-[3-(trifluoromethoxy)phenoxymethyl]-1,2-dihydropyridin-1-yl}butyl)-N-{[3-(trifluoromethoxy)phenyl]methyl}-1H-1,2,3-triazole-4-carboxamide]
A549 cells
  pEC50: 5.30 to 6.30
[1]
  pIC50: > 7.00

## O=C(NCc1cccc(OC(F)(F)F)c1)c1cn(CC(F)CCn2ccc(COc3ccc(Cl)cc3)cc2=O)nn1 (centres unmarked) [Example 477, 1-{4-[4-(4-chlorophenoxymethyl)-2-oxo-1,2-dihydropyridin-1-yl]-2-fluorobutyl}-N-{[3-(trifluoromethoxy)phenyl]methyl}-1H-1,2,3-triazole-4-carboxamide]
A549 cells
  pEC50: 6.30 to 7.00
[1]
  pIC50: > 7.00

## O=C(NCc1cccc(OC(F)(F)F)c1)c1cn(CC(F)CCn2ccc(COc3ccc(F)cc3F)cc2=O)nn1 (centres unmarked) [Example 478, 1-{4-[4-(2,4-difluorophenoxymethyl)-2-oxo-1,2-dihydropyridin-1-yl]-2-fluorobutyl}-N-{[3-(trifluoromethoxy)phenyl]methyl}-1H-1,2,3-triazole-4-carboxamide]
A549 cells
  pEC50: 6.30 to 7.00
[1]
  pIC50: > 7.00

## O=C(NCc1cccc(OC(F)(F)F)c1)c1cn(CC(F)CCn2ccc(Cn3ccccc3=O)cc2=O)nn1 (centres unmarked) [Example 479, 1-(2-fluoro-4-{2-oxo-4-[(2-oxo-1,2-dihydropyridin-1-yl)methyl]-1,2-dihydropyridin-1-yl}butyl)-N-{[3-(trifluoromethoxy)phenyl]methyl}-1H-1,2,3-triazole-4-carboxamide]
A549 cells
  pEC50: 5.30 to 6.30
[1]
  pIC50: 5.30 to 6.30

## O=C(NCc1cccc(OC(F)(F)F)c1)c1cn(CC(F)CCn2ccc(COc3ccccn3)cc2=O)nn1 (centres unmarked) [Example 480, 1-(2-fluoro-4-{2-oxo-4-[(pyridin-2-yloxy)methyl]-1,2-dihydropyridin-1-yl}butyl)-N-{[3-(trifluoromethoxy)phenyl]methyl}-1H-1,2,3-triazole-4-carboxamide]
A549 cells
  pEC50: 5.30 to 6.30
[1]
  pIC50: 6.30 to 7.00

## O=C(NCc1cc(C(F)(F)F)ccn1)c1cn(CC(F)CCn2ccc(COc3cccc(Cl)c3)cc2=O)nn1 (centres unmarked) [Example 481, 1-{4-[4-(3-chlorophenoxymethyl)-2-oxo-1,2-dihydropyridin-1-yl]-2-fluorobutyl}-N-{[4-(trifluoromethyl)pyridin-2-yl]methyl}-1H-1,2,3-triazole-4-carboxamide]
A549 cells
  pEC50: 6.30 to 7.00
[1]
  pIC50: > 7.00

## O=C(NCc1cc(C(F)(F)F)ccn1)c1cn(CC(F)CCn2ccc(COc3cccc(F)c3)cc2=O)nn1 (centres unmarked) [Example 482, 1-{2-fluoro-4-[4-(3-fluorophenoxymethyl)-2-oxo-1,2-dihydropyridin-1-yl]butyl}-N-{[4-(trifluoromethyl)pyridin-2-yl]methyl}-1H-1,2,3-triazole-4-carboxamide]
A549 cells
  pEC50: 6.30 to 7.00
[1]
  pIC50: > 7.00

## O=C(NCc1cc(C(F)(F)F)ccn1)c1cn(CC(F)CCn2ccc(COc3cccc(OC(F)(F)F)c3)cc2=O)nn1 (centres unmarked) [Example 483, 1-(2-fluoro-4-{2-oxo-4-[3-(trifluoromethoxy)phenoxymethyl]-1,2-dihydropyridin-1-yl}butyl)-N-{[4-(trifluoromethyl)pyridin-2-yl]methyl}-1H-1,2,3-triazole-4-carboxamide]
A549 cells
  pEC50: 6.30 to 7.00
[1]
  pIC50: > 7.00
